Measured values reported in article PMC9497102, “Thiosemicarbazone Derivatives Developed to Overcome COTI-2 Resistance” (Cancers, 2022).
Where two headings read alike, the source gives them in different places.

Experiments:
[1] = system: SW480/Coti cells; assay: MTT viability assay, 72 h; format: cell-based, human; conditions: for IC50: Homo sapiens, SW480, 72 h, MTT
Experimental: (§1) In vitro tests were performed with human colorectal cancer SW480 cells (purchased from the American Type Culture Collection, Manassas, VA, USA), SW480/Tria, and the SW480/Coti cells, which are previously established sublines that are resistant to Triapine and COTI-2 [16], respectively. Additionally, small-cell lung carcinoma GLC-4 and its subline GLC-4/adr, which is a doxorubicin-resistant subline overexpressing ABCC1 (purchased from Dr. […], Groningen, The Netherlands), were used. All cells were maintained in a humidified 5% CO2 incubator at 37 °C and grown in minimal essential medium or RPMI-1640, respectively, supplemented with 10% fetal bovine serum (FBS). In order to maintain the resistant phenotype of GLC-4/adr cells, they were selected with doxorubicin (1152 nM) once a month. All cell lines were tested for mycoplasma contamination. For the cytotoxicity, cell viability, and proliferation studies, the 3-(4,5-dimethylthiazol-2-yl)-2,5-diphenyltetrazolium bromide (MTT) assay was utilized. Cells were seeded in 96-well plates at a density of 2 × 10^4 cells/well, with the exception of SW480/Tria, which was used at a density of 3 × 10^4 cells/well. After 24 h of recovery, cells were treated with the indicated concentration of drugs. For the drug combination experiments, verapamil and cyclosporine A (CSA) were used as ABCC1 modulators, and tetrathiomolybdate (TTM) was used as a copper chelator. The TSCs were dissolved in DMSO followed by subsequent dilutions in the medium in order to maintain a final DMSO concentration of <1%. After 72 h, the treatment solution was removed and replaced with 100 μL of MTT solution (EZ4U, Biomedica, Vienna, Austria), which was diluted 1:10 in the growth medium. A TECAN Infinite 200 Pro plate reader was used to measure the absorbance of the solution after 2-3 h incubation at 5% CO2 in an incubator at 37 °C. The anticancer activity was determined with GraphPad Prism software and indicated as IC50 values (half maximum inhibitory concentration).

[2] = Spectrophotometric redox reaction of copper(II) complexes with GSH or AA; format: physicochemical; conditions: 300 equiv. GSH, pH 7.4, after formation of mixed-ligand GSH adduct
Experimental: A Hewlett Packard 8452A diode array spectrophotometer and a special, tightly closed tandem cuvette (Hellma Tandem Cell, 238-QS) were used to monitor the redox reactions of the Cu(II) and Fe(III) complexes with GSH and AA. The spectra were recorded at a physiological pH (pH = 7.4, 50 mM HEPES, I = 0.1 M KCl) when the metal complexes:GSH or AA ratio was 1:300 (ccomplex = 30 μM, cGSH or AA = 9 mM). The stock solutions of the complexes and the GSH and AA solutions were freshly prepared before every measurement. In the first half of the cuvette, the ligand was mixed with the complex, and the other contained the reducing agent. Both isolated parts of the cuvette were deoxygenated with argon for 10 min. The first spectrum was recorded before mixing, and then after mixing, the reduction was usually followed until no further absorbance change was observed.

[3] = system: GLC-4/adr cells (ABCC1-overexpressing); assay: MTT viability assay, 72 h; format: cell-based
Experimental: as §1

[4] = system: GLC-4 cells; assay: MTT viability assay, 72 h; format: cell-based; conditions: Homo sapiens, GLC4
Experimental: as §1

[5] = system: SW480 and SW480/Coti cells; assay: HPLC-MS cell uptake measurements; format: cell-based, human; conditions: 10 µM, 3 h; for uptake lower in resistant SW480/Coti cells compared with parental SW480 cells: LC-MS (method not validated)
Experimental: Cells (1 × 10^6) were seeded in 25 cm^2 culture flasks and left to recover for 24 h at 37 °C and 5% CO2. The compounds were dissolved in DMSO (10 mM) and further diluted in the growth medium. The cells were treated in triplicate by replacing the growth medium with 5 mL of drug-containing medium (10 µM). After 3 h of incubation the cells were washed once with ice-cold PBS, and then collected by scraping into ice-cold PBS. The cell suspension was centrifuged for 5 min at 300× g and the supernatant was removed. Then, the cell pellets were lysed with three freeze/thaw cycles in liquid nitrogen/37 °C waterbath and re-suspended in 100 µL of water and 300 µL of cold acetonitrile (1:3 mixture). After 10 min of incubation on ice, the samples were centrifuged (15,080× g, 4 °C, and 10 min) and the supernatants were stored at −80 °C for HPLC-MS analysis. For the calibration curve, known concentrations of drugs were spiked into untreated cell extracts before adding acetonitrile. To normalize to the cell number, additional flasks were prepared (treated and untreated) and cells were collected by trypsinization and counted with counting chambers.
LC-MS analyses of the cell and media extracts were performed on a Vanquish Horizon UHPLC system (Thermo Fisher Scientific, Waltham, MA, USA) coupled to the ESI source of a timsTOF fleX mass spectrometer (Bruker Daltonics, Billerica, MA, USA). […] High-resolution ESI-MS spectra were recorded using the positive ion mode in the range of m/z 150–510 at a spectra rate of 2 Hz. […] For quantification, extracted ion chromatograms of m/z 249.1168 ± 0.0020 for COTI-NMe2 and of m/z 367.1699 ± 0.0020 for COTI-2 were calculated and the peak areas were determined using Bruker Compass Data Analysis 5.3.
In general, it must be mentioned that the LC-MS method for quantification of COTI-2 and COTI-NMe2 was not validated and that the deviation of the peak areas both within a batch and between batches was higher than expected. […]

[6] = system: SW480/Coti cells; set-up: method as in PMID 33190481; conditions: 72 h, MTT; cited from earlier work

| IC50 [1] | redox reaction of the copper(II) complex with GSH [2] | SMILES | IC50 [3] | IC50 [4] | Relative Resistance SW480/Coti ([1]; IC50 of resistant subline divided by IC50 of parental SW480) | uptake lower in resistant SW480/Coti cells compared with parental SW480 cells [5] | lower intracellular drug levels compared with COTI-2 ([5]; both SW480 and SW480/Coti) | IC50 [6] |
| --- | --- | --- | --- | --- | --- | --- | --- | --- |
| 3.98 ± 0.4 µM | no measurable spectral changes were seen | CN(C(=S)N/N=C1\CCCc2cccnc21)C1CCCCC1 [COTI-NMeCy, N-Cyclohexyl-2-(6,7-dihydroquinolin-8(5H)-ylidene)-N^4-methylhydrazine-1-carbothioamide] | 0.54 ± 0.15 µM | 0.17 ± 0.1 µM | – | – | – | – |
| 0.05 ± 0.03 µM | no measurable spectral changes were seen | CN(C)C(=S)NN=C1CCCc2cccnc21 (mixture of isomers) [COTI-NMe2, 2-(6,7-Dihydroquinolin-8(5H)-ylidene)-N^4,N^4-dimethylhydrazine-1-carbothioamide] | 0.06 ± 0.03 µM | 0.03 ± 0.03 µM | 1.3 ^n.s. | no difference | 10–20 fold | – |
| – | – | S=C(N/N=C1\CCCc2cccnc21)N1CCN(c2ccccn2)CC1 [COTI-2, 4-(pyridine-2-yl)-N-([(8E)-5,6,7,8-tetrahydroquinolin-8-ylidene]amino)piperazine-1-carbothioamide] | – | – | – | ~ 40% | – | 9.51 ± 3.11 µM |
